pIC50: −log10 of the molar value. Where two headings read alike, the source gives them in different places.
Tests used:
[1] = molecular target: T1, human JAK3 (Homo sapiens, UniProt P52333); assay: JAK3 kinase inhibition (Table 1 IC50, immune complex kinase assay); type: biochemical; conditions: for pIC50: Table 1, measured inhibition values for JAK3 kinase
T1 construct: KL-2 EBV-transformed human lymphoblastoid B cells (native JAK3 kinase assays); endogenous in cells; host or cells: KL-2 EBV-transformed human lymphoblastoid B cell line
T1 sequence (P52333 1-1124): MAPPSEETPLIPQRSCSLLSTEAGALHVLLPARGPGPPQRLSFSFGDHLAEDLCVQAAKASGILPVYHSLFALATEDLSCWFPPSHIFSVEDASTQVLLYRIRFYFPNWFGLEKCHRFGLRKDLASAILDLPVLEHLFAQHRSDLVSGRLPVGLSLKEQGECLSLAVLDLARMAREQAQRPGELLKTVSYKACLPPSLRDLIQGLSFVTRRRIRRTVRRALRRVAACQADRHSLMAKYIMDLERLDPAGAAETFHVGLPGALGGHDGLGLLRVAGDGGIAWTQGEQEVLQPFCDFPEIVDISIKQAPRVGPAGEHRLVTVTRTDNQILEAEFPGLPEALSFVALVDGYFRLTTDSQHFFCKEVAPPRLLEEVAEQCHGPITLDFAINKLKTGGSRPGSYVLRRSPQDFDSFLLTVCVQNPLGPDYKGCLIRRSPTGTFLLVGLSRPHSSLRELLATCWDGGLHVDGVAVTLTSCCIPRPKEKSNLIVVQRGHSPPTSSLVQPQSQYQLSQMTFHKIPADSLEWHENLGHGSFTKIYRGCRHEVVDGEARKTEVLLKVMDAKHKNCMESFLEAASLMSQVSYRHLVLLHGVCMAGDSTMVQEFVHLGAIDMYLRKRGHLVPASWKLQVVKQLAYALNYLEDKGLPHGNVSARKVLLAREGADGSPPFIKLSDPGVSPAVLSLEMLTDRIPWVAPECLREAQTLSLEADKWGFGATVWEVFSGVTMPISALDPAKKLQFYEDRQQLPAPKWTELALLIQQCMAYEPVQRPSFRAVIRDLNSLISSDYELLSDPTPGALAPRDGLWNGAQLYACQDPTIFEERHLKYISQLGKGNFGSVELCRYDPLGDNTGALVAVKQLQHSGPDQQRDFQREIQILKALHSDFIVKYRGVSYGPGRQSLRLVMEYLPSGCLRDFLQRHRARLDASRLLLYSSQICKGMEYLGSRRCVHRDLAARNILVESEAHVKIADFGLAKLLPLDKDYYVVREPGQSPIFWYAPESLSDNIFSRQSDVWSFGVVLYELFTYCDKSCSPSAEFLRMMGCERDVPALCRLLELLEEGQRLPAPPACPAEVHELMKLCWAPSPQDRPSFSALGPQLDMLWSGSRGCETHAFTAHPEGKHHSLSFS
Protocol: Immune Complex Kinase Assays.
(§1) KL-2 EBV-transformed human lymphoblastoid B cells (native JAK3 kinase assays) or insect ovary cells (recombinant JAK3 kinase assays) were lysed with NP-40 lysis buffer (50 mM Tris, pH 8, 150 mM NaCl, 5 mM EDTA, 1% NP-40, 100 μM sodium orthovanadate, 100 μM sodium molybdate, 8 μg/ml aprotinin, 5 μg/ml leupeptin, and 500 μM PMSF) and centrifuged 10 minutes at 13000×g to remove insoluble material. Samples were immunoprecipitated with antisera prepared against JAK3. The antisera were diluted and immune complexes collected by incubation with 15 μl protein A Sepharose. After 4 washes with NP-40 lysis buffer, the protein A Sepharose beads were washed once in kinase buffer (20 mM MOPS, pH 7.0, 10 mM MgCl2) and resuspended in the same buffer. Reactions were initiated by the addition of 25 μCi γ[^32P] ATP (5000 Ci/mMole) and unlabeled ATP to a final concentration of 5 μM. Reactions were terminated by boiling for 4 min in SDS sample buffer. Samples were run on 9.5% SDS polyacrylamide gels and labeled proteins will be detected by autoradiography. Following electrophoresis, kinase gels were dried onto Whatman 3M filter paper and subjected to phosphoimaging on a Molecular Imager (Bio-Rad, Hercules, Calif.) as well as autoradiography on film. For each drug concentration, a kinase activity index (KA) was determined by comparing the kinase activity in phosphorimager units (PIU) to that of the baseline sample. In some experiments, cold kinase assays were performed, as described (Uckun et. al., 1998, Clin. Cancer Res., 4:901-912).

[2] = molecular target: T1, human JAK3; assay: Immune complex kinase assay, JAK3 immunoprecipitated from KL2 EBV-transformed lymphoblastoid B cell line; type: biochemical; conditions: JAK3 immunoprecipitated from KL2 cells
Protocol: as §1, with “Following electrophoresis, kinase gels were dried onto Whatman 3M filter paper and subjected to phosphoimaging on a Molecular Imager (Bio-Rad, Hercules, Calif.) as well as autoradiography on film.” left out, “In some experiments, cold kinase assays were performed, as described (Uckun et. al., 1998, Clin. Cancer Res., 4:901-912).” left out

[3] = test system: RBL-2H3 mast cells; assay: IgE/antigen-induced degranulation and mediator release; type: cell-based, rat; conditions: 1 h preincubation, DNP-BSA challenge; at ≧30 μM
Excerpt: Vehicle treated control RBL-2H3 cells released 45.1±3.1% of their hexosaminidase contents after DNP-BSA challenge. […] Vehicle treated control cells released 11.3±1.3 pg LTC4, and 160±33.0 pg TNFα/10^6 mast cells. The results on LTC4 and TNFα release are expressed as percent of maximum control release from vehicle treated control mast cells. The data points represent the mean±SEM values obtained from 3-6 independent experiments. […] *P<0.05 and **P<0.0001 compared to control as determined by Student's t test.
Supernatants were removed and saved.

[4] = test system: RBL-2H3 mast cells; assay: IgE/antigen-induced activation (cell spreading, microtubule organization) by confocal microscopy; type: cell-based, rat; conditions: 30 μM, two hour incubation
Protocol: RBL-2H3 cells were cultured overnight on 22×22 mm coverslips at a cell density of 0.01×10^6/ml with […] DNP-IgE. Sensitized RBL-2H3 cells were then treated with 30 μM WHI-P131, vehicle, or control compounds WHI-P258 and WHI-P112 prior to challenge with DNP-BSA, as described in the legend of FIG. 4. After stimulation with DNP-BSA for 1 hour, cells were fixed in cold methanol for 15 minutes followed by permeabilization with PBS containing 0.1% Triton X-100. […] After washing 3 times with PBS-0.1% Triton X-100, cells were incubated with fluorescein labeled secondary antibody (Zymed, San Francisco, Calif.) for another 40 minutes. Cells were washed three times to remove unbound antibody. DNA labeling was performed by incubation of coverslips with toto-3 (Molecular Probes, Eugene, Oreg.) for 10 minutes. Excessive dye was washed with PBS-0.1% Triton X-100. Cells were visualized under MRC 1024 Laser Scanning Microscope after mounting with Vectashield (Vector laboratories, Inc, Burlingame, Calif.), as previously reported.
Confocol Microscopy: Staining of mast cells with primary and secondary antibodies followed by confocal laser scanning microscopy was performed as previously described in detail (Uckun et. al., 1998, Clin. Cancer Res., 4:901-912). After staining with appropriate primary and secondary antibodies, cells were washed three times to remove unbound antibody. DNA labeling was performed by incubation of coverslips with toto-3 (Molecular Probes, Eugene, Oreg.) for 10 min. Excessive dye was washed with PBS-0.1% triton X-100. Cells were visualized under MRC 1024 Laser Scanning Microscope after mounting with Vectashield (Vector laboratories, Inc, Burlingame, Calif.).
In a systematic effort aimed at elucidating the biologic consequences of JAK3 inhibition in mast cells, we first sought to determine if the JAK3 inhibitor WHI-P131 could prevent the IgE receptor/FcεRI-mediated activation of mast cells. Since the IgE receptor/FcεRI-mediated activation of mast cells results in a distinct morphologic transformation with marked cell spreading due to membrane ruffling, microtubule formation and actin polymerization (Apgar, 1997), we evaluated the effects of WHI-P131 on the activation-associated transformation of shape and surface topography of RBL-2H3 mast cells using confocal laser scanning microscopy (Ghosh et. al., 1998).

[5] = test system: JAK3-dependent STAT activation; assay: EMSA, IL-2 triggered STAT activation in 32Dc11/IL2Rβ cells; type: cell-based; conditions: 10 μg/ml, 32Dc11/IL2Rβ cells
Protocol: Electrophoretic Mobility Shift Assays (EMSAs). EMSAs were performed to examine the effects of dimethoxyquinazoline compounds on cytokine-induced STAT activation (Goodman et. al., 1998). […] Cells were collected after 15 minutes and resuspended in lysis buffer (100 mM Tris-HCl pH 8.0, 0.5% NP-40, 10% glycerol, […], 0.1 mM NaVO3, 50 mM NaF, 150 mM NaCl, 1 mM DTT, 3 μg/ml Aprotinin, 2 μg/ml Pepstatin A, 1 μg/ml Leupeptin and 0.2 mM PMSF). Lysates were precleared by centrifugation for 30 min. Cell extracts (approximately 10 μg) were incubated with 2 μg of poly(dI-dC) for 30 minutes, followed by a 30 minutes incubation with 1ng of poly. nucleotide kinase-^32P labeled double stranded DNA oligonucleotide representing the IRF-1 STAT DNA binding sequence (Santa Cruz Biotechnology, Santa Cruz, Calif.). Samples were resolved by non-denaturing PAGE and visualized by autoradiography.

[6] = test system: mast cell; conditions: cited from earlier work

In the case of COc1cc2ncnc(Nc3cccc(Br)c3)c2cc1OC [WHI-P79, 4-(3′-Bromophenyl)-amino-6,7-dimethoxyquinazoline], the pIC50 [1] was < 3.52.

COc1cc2ncnc(Nc3cc(Br)c(O)c(Br)c3)c2cc1OC [WHI-P97, 4-(3′,5′-Dibromo-4′-hydroxylphenyl)-amino-6,7-dimethoxyquinazoline] gave a pIC50 [1] of 4.96 and a pIC50 [2] of 4.96.

With COc1cc2ncnc(Nc3ccc(C)c(Br)c3)c2cc1OC [WHI-P111, 4-(3′-Bromo-4-methylphenyl)-amino-6,7-dimethoxyquinazoline] the “JAK3 inhibitory activity (in words)” value [1] was “do not inhibit JAK3”, the pIC50 [1] was < 3.52 and the LTC4 release [3] was “did not inhibit”. For the same compound, the TNFα release [3] was “did not inhibit” and the “β-hexosaminidase release (degranulation)” value [3] was “did not inhibit”.

In the case of COc1cc2ncnc(Nc3cc(Br)ccc3Br)c2cc1OC [WHI-P112, 4-(2′,5′-Dibromophenyl)-amino-6,7-dimethoxyquinazoline], the “JAK3 inhibitory activity (in words)” value [1] was “do not inhibit JAK3”, the pIC50 [1] was < 3.70 and the “JAK3 inhibitory activity (in words)” value ([1]; listed as WHI-112) was “does not inhibit JAK3”. The “IgE/antigen-induced mast cell activation (spreading and microtubule organization)” value [4] was “unable to produce any significant effects”, the LTC4 release [3] was “did not inhibit” and the TNFα release [3] was “did not inhibit”. The “β-hexosaminidase release (degranulation)” value [3] was “did not inhibit”.

For COc1cc2ncnc(Nc3ccccc3O)c2cc1OC [WHI-P132, 4-(2′-Hydroxylphenyl)-amino-6,7-dimethoxyquinazoline], the “JAK3 inhibitory activity (in words)” value [1] was “inactive”, the pIC50 [1] was < 3.52 and the “JAK3-dependent STAT activation after stimulation with IL-2” value [5] was “not”.

For COc1cc2ncnc(Nc3cccc(O)c3)c2cc1OC [WHI-P180, 4-(3′-hydroxyphenyl)-amino-6,7-dimethoxyquinazoline], the pIC50 [1] is given as 5.52, the “potency relative to WHI-P258” value ([6]; IgE/antigen induced mast cell responses) is given as “much more potent” and the “mast cell degranulation (β-hexasaminidase release)” value ([6]; IgE/antigen induced) is given as “effectively inhibited”. For the same compound, the “secretion of newly synthesized mediators (LTC4 release)” value ([6]; IgE/antigen induced) was “effectively inhibited”.

With COc1cc2ncnc(Nc3ccccc3)c2cc1OC [WHI-P258, 4-(Phenyl)-amino-6,7-dimethoxyquinazoline] the “JAK3 inhibitory activity (in words)” value [1] was “lacks JAK3 inhibitory activity” and the pIC50 [1] was < 3.52.

Reference: patent US6452005B1, “JAK-3 inhibitors for treating allergic disorders” (Parker Hughes Institute, priority 1999, dated 2002)
